Key:
[1] = system: acute prontyelocytic leukemia cells; experiment: Chen et al.: acute treatment of leukemia cells with arsenic trioxide; format: cell-based; settings: equivalent of 0.1 μmoles per liter
Method: Bae cites a paper by Chen et at. (May 1, 1997) in his references, published more than a year before his patent filing, which recites the use of arsenic trioxide (As2O3) as an acute treatment on acute prontyelocytic leukemia cells. The treatment is effective over an exposure range of 0.5-2.0 μmoles per liter, but ineffective at 0.1 μmoles per liter. These values are equivalent to […] and 0.02 μg/ml, respectively. Chen requires just 9-36 percent of Bae's arsenic hexoxide dose to produce an acute effect on cells with arsenic trioxide. (Two percent of Bae's dose [0.1 μmoles per liter] is an […] cellular dose for arsenic trioxide.) For treating humans, Bae's prolonged daily exposure to arsenic hexoxide is 1818-times greater than […] effective cellular dose and 40,000-times greater than 50 ppb. Chen reports no human exposure data, but if he treated cancers in humans with an 1818-times greater daily dose of arsenic trioxide, that exposure would be 3600-14,400-times greater than this invention's 50 ppb or μg/L. Chen's ineffective dose would be 720-times greater than 50 μg/L.

[2] = system: acute prontyelocytic leukemia cells; settings: acute treatment of cells; cited from earlier work

arsenic trioxide
ineffective exposure, mass equivalent [1]: 0.02 µg/mL
effective exposure range [2]: 0.5-2.0 μmoles per liter
ineffective exposure [2]: 0.1 μmoles per liter

— US20080214680A1, “Application of arsenic as a cancer prevention agent” (priority 2003, published 2008)
